This note sets out measurements from patent US12071424B2, “IRE1 small molecule inhibitors” (Cornell University, priority 2017, dated 2024).

Data set [1] has as its target T1, IRE1a (Homo sapiens, UniProt O75460).
T1 construct: purchased SignalChem
As to the kind of experiment: In vitro FRET assay (IRE1a cleavage of XBP1 RNA probe). The data set is classed as biochemical. Conditions: 2 nM SignalChem IRE1a, tested as Formic Acid Salt (37: HCl Salt). In outline: Human

Another data set deals with T2, hERG channel (Homo sapiens, UniProt Q12809).
T2 construct: expressed in transfected cells
T2 sequence (Q12809 whole entry): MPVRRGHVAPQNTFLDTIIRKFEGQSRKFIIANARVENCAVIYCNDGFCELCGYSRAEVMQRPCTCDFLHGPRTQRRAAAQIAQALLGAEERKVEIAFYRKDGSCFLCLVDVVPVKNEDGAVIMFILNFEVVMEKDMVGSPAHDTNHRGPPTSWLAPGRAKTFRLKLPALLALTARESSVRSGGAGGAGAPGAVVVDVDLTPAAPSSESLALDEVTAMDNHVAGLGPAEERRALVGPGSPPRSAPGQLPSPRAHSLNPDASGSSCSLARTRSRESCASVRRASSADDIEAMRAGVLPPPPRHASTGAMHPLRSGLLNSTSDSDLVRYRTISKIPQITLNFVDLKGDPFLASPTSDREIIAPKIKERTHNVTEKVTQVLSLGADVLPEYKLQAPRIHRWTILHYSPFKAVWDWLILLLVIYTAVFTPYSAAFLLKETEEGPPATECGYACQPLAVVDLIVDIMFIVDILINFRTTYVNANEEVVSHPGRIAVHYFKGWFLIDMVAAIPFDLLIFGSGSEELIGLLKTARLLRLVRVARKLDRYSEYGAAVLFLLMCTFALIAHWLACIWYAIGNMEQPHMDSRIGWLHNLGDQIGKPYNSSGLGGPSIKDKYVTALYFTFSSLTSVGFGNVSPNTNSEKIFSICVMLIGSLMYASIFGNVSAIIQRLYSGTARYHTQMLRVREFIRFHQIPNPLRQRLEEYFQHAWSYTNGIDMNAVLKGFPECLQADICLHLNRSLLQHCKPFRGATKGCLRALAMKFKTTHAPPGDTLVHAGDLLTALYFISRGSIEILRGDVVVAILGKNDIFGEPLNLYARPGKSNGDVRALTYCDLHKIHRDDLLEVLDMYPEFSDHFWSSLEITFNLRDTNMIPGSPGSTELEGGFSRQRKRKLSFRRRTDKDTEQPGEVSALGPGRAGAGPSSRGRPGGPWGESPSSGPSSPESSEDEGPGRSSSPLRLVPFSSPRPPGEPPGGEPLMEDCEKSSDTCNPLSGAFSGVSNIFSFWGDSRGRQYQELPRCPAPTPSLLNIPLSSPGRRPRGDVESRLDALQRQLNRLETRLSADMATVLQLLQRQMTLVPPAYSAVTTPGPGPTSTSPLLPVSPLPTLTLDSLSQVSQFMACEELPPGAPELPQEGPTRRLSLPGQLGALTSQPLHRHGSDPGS
As to the kind of experiment: hERG potassium ion channel automated planar clamp (QPatch) in stable CHO cell line. Particulars: Formic Acid Salt (37: HCl Salt), read-out: hERG channel blockade Mean IC50. The data set is classed as cell-based. The procedure: Blockade of the cardiac ion channel coded by the hERG gene can lead to cardiac arrhythmia. […] To determine the viability of the compounds disclosed herein as pharmacological agents that would not affect the hERG channel blockade, a standard automated planar clamp method was employed to determine the IC50 for various test compounds on their inhibition of the channel. An electrophysiological assay was prepared to measure the electric current passing through the hERG channel expressed in a stable CHO cell line by applying the planar clamp method. This assay was performed using the automated QPatch platform (Sophion, Denmark) which allows fast and accurate electrophysiological characterization of the hERG ion channel and the determination of IC50 values for the test compounds, as shown in Table 9.
(In general: hERG is a cardiac potassium channel; its block is linked to QT prolongation.)

In another data set the test system is 293T cells. As to the kind of experiment: Growth assay (cytotoxicity). The data set is classed as cell-based, human. Particulars: Formic Acid Salt (37: HCl Salt). The procedure:
A growth assay was performed to evaluate the compounds disclosed herein for cytotoxicity. Briefly, 5,000,000 293T cells were resuspended in 18 mL of cDMEM for a final concentration of […]. […] In a separate 96 well dilution plate, 199 uL cDMEM and 1 uL of DMSO or any one of the compounds disclosed herein (shown as Test Compound 1, 2, 3, 4, 5, or 6 below) were added to wells A4, A8, C4, C8, E4, E8, G4, and G8, 133.3 uL cDMEM was added to wells 1, 2, 3, 5, 6, and 7 in rows A, C, E and G of the dilution plate. Compounds were serially diluted leftwards in threefold dilutions (66.7 uL into 133.3 uL cDMEM). 20 uL of each dilution was transferred in duplicate (duplicates in vertical paired wells) to the cells plated in the 96-well plate shown in Table 5, to the total concentrations shown below. 200 uL cDMEM was addled to media wells (wells G5-H8). The plate was then placed in a humidified chamber for a […], and then photographed (media was more yellow in wells with potent cell growth). Absorbance was then measured at ˜[…] (lower for more acidic media) and ˜450 nM (higher for more acidic media).

The nature of the next data set: in vivo. Particulars: mouse, po, 30 mg/kg.
In data set [2] the test system is IRE1a. As to the kind of experiment: IRE1a Endoribonuclease Nanoluciferase Assay (XBP1 luciferase reporter in 293T cells). The data set is classed as cell-based, human. Particulars: Homo sapiens, HEK-293T, ER stressor, tested as Formic Acid Salt (37: HCl Salt). In outline:
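293T cells transiently transfected with a PGK-Luc2-P2A-XBP1u-Nanoluciferase-Pest reporter, replated after 6 h, then treated next day with ER stressors ± inhibitors. After lysis, firefly luminescence then nanoluciferase luminescence read sequentially (1000 ms integration each).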
For orientation: A reporter such as luciferase makes a cellular process visible.

Data set [3] is described as follows: Bioavailability assay (pharmacokinetic study). Conditions: mouse; IV 1 mg/kg, PO 30 mg/kg (Compound A PO 10 mg/kg).
A further data set deals with IRE1a/XBP1 pathway. As to the kind of experiment: Inhibition of endogenous XBP1 splicing in 293T cells with tunicamycin. The data set is classed as cell-based, human. The protocol:
Gene expression was evaluated by quantitative PCR for XBP1s and total XBP1 transcripts using the 2^(−ΔCT) method for calculating normalized gene expression. Gene expression levels were normalized to ACTB transcripts. XBP1 splicing was calculated as actin-normalized XBP1s expression divided by actin-normalized total XBP1 expression.

The nature of data set [4]: Metabolic assays of N,N-dimethyl compounds. Particulars: data not shown. The data set is classed as in vitro ADME.
The subject of data set [5] is IRE1a-dependent XBP1 splicing. Description: Inhibition of IRE1a-dependent XBP1 splicing in mice with metastatic ovarian cancer. The data set is classed as in vivo, mouse. Particulars: single oral dose 45 mg/kg, 24 hours, FACS-isolated ascites cells. The protocol: Mice (n=3) with established metastatic ovarian cancer were orally gavaged with 45 mg/kg vehicle control or inhibitor dissolved in H2O. The Inhibitor was Compound C. Compound C is 2-chloro-N-(5-(2-(((1r,4r)-4-dimethylamino)cyclohexyl)amino)-8-ethylquinazolin-6-yl)-6-methylpyridin-2-yl)benzenesulfonamide, Compound 91, described herein. After 24 hours, mice were euthanized, ascites-resident cells were extracted and tumor cells, dendritic cells (DCs), and CD4+ T cells were isolated by FACS. The samples were used for subsequent if RT-qPCR analysis of beta-actin, XBP1s and total XBP1. Gene expression was evaluated by quantitative PCR for XBP1s and total XBP1 transcripts using the 2^(−ΔCT) method for calculating normalized gene expression. Gene expression levels were normalized to Actb transcripts. XBP1 splicing is calculated as XBP1s expression divided by total XBP1 expression. A single oral dose of Compound C suppressed IRE1a-dependent XBP1 splicing in tumor cells and relevant immune cells in vivo over 24 hours, FIG. 7.
Mice (n=3) with established metastatic ovarian cancer were orally gavaged with 45 mg/kg vehicle control or inhibitor dissolved in H2O. […] Gene expression was evaluated by quantitative PCR for XBP1s and total XBP1 transcripts using the 2^(−ΔCT) method for calculating normalized gene expression. […] XBP1 splicing is calculated as XBP1s expression divided by total XBP1 expression. […]

In data set [6] the test system is IRE1a-mediated XBP1 splicing. Description: Target engagement in pancreas and salivary gland (RT-qPCR XBP1 splicing). The data set is classed as in vivo. Particulars: mouse, 30 mg/kg oral gavage, 6 hours; compared to control and Compound B. The protocol:
Mice (n=3 per group) were orally gavaged with 30 mg/kg vehicle control or IRE1 inhibitors dissolved in H2O. After 6 hours, mice were euthanized and pancreas and salivary gland tissues were isolated, snap frozen on dry ice, and used for subsequent RT-qPCR analysis of beta-actin, XBP1s and total XBP1. Gene expression was evaluated by quantitative PCR for XBP1s and total XBP1 transcripts using the 2^(−ΔCT) method for calculating normalized gene expression. Gene expression levels were normalized to Actb transcripts. XBP1 splicing is calculated as XBP1s expression divided by total XBP1 expression.
On the technique in general: In qPCR the cycle at which signal appears reflects the starting amount.

In data set [7] the test system is IRE1a. As to the kind of experiment: IRE1a phosphorylation inhibition assay (immunoblot, 293T cells, tunicamycin). The data set is classed as cell-based, human. The protocol:
Inhibition of ER stress-induced IRE1a phosphorylation and XBP1s protein accumulation in human 293T cells assessed. Immunoblot analysis was performed in human 293T cells lysates obtained from cells after exposure to the chemical ER stress-inducing agent tunicamycin, and optional treatment with Compound C. Lysates were probed with antibodies recognizing IRE1a, phosphorylated IRE1a, XBP1, or TATA-binding protein (TBP). (TBP) was blotted as a protein loading control. […] See FIG. 8, 20 nM was sufficient to reduce XBP1s protein levels below the limit of detection in this assay.

The structures appear in SMILES notation. Bounds are passed on as bounds.

T1 sequence (O75460 19-977): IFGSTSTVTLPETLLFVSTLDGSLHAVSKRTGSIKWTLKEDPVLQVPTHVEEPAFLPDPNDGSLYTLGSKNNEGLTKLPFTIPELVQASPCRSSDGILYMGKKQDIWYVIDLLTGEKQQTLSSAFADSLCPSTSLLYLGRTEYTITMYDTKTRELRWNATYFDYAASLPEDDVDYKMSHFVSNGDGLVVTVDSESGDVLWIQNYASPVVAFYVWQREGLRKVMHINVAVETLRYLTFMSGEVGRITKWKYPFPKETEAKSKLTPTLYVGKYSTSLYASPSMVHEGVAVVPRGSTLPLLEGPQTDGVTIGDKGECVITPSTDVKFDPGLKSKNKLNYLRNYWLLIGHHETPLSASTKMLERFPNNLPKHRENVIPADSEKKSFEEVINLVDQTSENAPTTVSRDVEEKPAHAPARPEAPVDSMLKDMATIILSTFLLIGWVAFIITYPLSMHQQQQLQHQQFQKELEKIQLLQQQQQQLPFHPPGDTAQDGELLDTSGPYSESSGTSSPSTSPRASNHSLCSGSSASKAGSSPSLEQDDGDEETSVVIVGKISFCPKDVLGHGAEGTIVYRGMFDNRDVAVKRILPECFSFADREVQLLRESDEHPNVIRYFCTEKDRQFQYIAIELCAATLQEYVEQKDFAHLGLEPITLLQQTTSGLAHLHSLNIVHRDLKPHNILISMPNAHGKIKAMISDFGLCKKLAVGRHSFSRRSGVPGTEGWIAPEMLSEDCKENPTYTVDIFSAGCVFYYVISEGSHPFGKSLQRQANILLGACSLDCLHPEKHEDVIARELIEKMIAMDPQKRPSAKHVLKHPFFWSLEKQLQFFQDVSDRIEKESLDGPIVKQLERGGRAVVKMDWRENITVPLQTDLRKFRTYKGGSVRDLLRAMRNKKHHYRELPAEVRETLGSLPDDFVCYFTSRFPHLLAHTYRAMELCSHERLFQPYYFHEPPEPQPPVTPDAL

Take `CCc1cc(-c2ccc(NS(=O)(=O)c3ccccc3Cl)nc2OC)cc2cnc(N[C@H]3CC[C@H](N)CC3)nc12` [Compound 37, N-(5-(2-(((1r,4r)-4-aminocyclohexyl)amino)-8-ethylquinazolin-6-yl)-6-methoxypyridin-2-yl)-2-chlorobenzene-sulfonamide]: the IC50 (commonly the concentration needed to halve the response being measured) on IRE1a [1] was at most 5 nM; at hERG channel it was 10 to 50 µM. Further, the “% Growth at 0.5556 uM” value with 293T cells (0.5556 uM) is on record as “D (D: >75% to ≤100%)”. Further, the “% Growth at 1.667 uM” value in the data set with 293T cells (1.667 uM) is “C (C: >50% to ≤75%)”. Further, the “% Growth at 5 uM” value in the data set on 293T cells (5 uM) is “B (B: >25% to ≤50%)”. The bioavailability (usually dose-corrected exposure relative to a reference, in per cent) in the data set “in vivo” amounted to 17%. In addition, in the data set on IRE1a [2], the EC50 (as a rule, the concentration needed to bring the measured effect to its halfway point) is at most 5 nM.

In “in vivo”, `CCc1cc(-c2ccc(NS(=O)(=O)c3ccccc3Cl)nc2C)cc2cnc(N[C@H]3CC[C@H](N(C)C)CC3)nc12` [Compound 91, 2-chloro-N-(5-(2-(((1r,4r)-4-(dimethylamino)cyclohexyl)amino)-8-ethylquinazolin-6-yl)-6-methylpyridin-2-yl)benzenesulfonamide] gave a bioavailability of 66%. In the data set with IRE1a [2], the EC50 was at most 5 nM.

With `CCc1cc(-c2ccc(NS(=O)(=O)c3ccccc3Cl)nc2C)cc2cnc(N[C@H]3CC[C@H](N)CC3)nc12` [Compound A, N-(5-(2-(((1r,4r)-4-aminocyclohexyl)amino)-8-ethylquinazolin-6-yl)-6-methylpyridin-2-yl)-2-chlorobenzenesulfonamide], the oral bioavailability in data set [3] is listed as 4%.

As for `CCc1cc(-c2ccc(NS(=O)(=O)c3ccccc3Cl)nc2C)cc2cnc(N[C@H]3CC[C@H](N(C)C)CC3)nc12` [Compound C], in the data set on IRE1a/XBP1 pathway, the “shift in potency between Compound A and Compound C” value was “approximately 3.6 ×”. Besides, the metabolism result in [4] was “removal of the methyl groups”. In addition, the “IRE1a-dependent XBP1 splicing in tumor cells and immune cells in vivo” value in data set [5] is “suppressed”. For the same compound, the “IRE1a-mediated XBP1 splicing in pancreas and salivary gland” value in [6] was “potently suppressed”. Also, in the data set on IRE1a [7], the “concentration sufficient to reduce XBP1s protein levels below the limit of detection” value was 20 nM. In addition, in the data set on IRE1a [7] (pre-incubation with compound), the IRE1a phosphorylation result is given as “strongly repressed” and the “accumulation of XBP1s protein” value was “completely abrogated”.

As to `CCc1cc(-c2ccc(NS(=O)(=O)c3ccccc3Cl)nc2OC)cc2cnc(N[C@H]3CC[C@H](N(C)C)CC3)nc12` [Compound D], the metabolism result in data set [4] is given as “removal of the methyl groups”. Further, the “IRE1a-dependent XBP1 splicing in tumor cells and immune cells in vivo” value in [5] was “suppressed”. Besides, the “IRE1a-mediated XBP1 splicing in pancreas and salivary gland” value in data set [6] was “potently suppressed”.
